Experimental data reported in patent publication US11407767B2, “Heterocyclyl substituted pyrrolopyridines that are inhibitors of the CDK12 kinase” (The University of Nottingham, priority 2017, dated 2022).
Where a name gives a salt, the structure may show the parent alone.

What follows are compounds tested against CDK12/CycK (Homo sapiens, UniProt Q9NYV4) (assay: Inhibition of CDK12 (ADP-Glo kinase assay)). Settings: 60 nM CDK12/CycK, 30 minutes pre-incubation, 1 μM ATP, 0.5 μM RBER-IRStide substrate, 1 h at 25° C., read-out: CDK12/cyclin K IC50.
Chain of CDK12/CycK (Q9NYV4 whole entry): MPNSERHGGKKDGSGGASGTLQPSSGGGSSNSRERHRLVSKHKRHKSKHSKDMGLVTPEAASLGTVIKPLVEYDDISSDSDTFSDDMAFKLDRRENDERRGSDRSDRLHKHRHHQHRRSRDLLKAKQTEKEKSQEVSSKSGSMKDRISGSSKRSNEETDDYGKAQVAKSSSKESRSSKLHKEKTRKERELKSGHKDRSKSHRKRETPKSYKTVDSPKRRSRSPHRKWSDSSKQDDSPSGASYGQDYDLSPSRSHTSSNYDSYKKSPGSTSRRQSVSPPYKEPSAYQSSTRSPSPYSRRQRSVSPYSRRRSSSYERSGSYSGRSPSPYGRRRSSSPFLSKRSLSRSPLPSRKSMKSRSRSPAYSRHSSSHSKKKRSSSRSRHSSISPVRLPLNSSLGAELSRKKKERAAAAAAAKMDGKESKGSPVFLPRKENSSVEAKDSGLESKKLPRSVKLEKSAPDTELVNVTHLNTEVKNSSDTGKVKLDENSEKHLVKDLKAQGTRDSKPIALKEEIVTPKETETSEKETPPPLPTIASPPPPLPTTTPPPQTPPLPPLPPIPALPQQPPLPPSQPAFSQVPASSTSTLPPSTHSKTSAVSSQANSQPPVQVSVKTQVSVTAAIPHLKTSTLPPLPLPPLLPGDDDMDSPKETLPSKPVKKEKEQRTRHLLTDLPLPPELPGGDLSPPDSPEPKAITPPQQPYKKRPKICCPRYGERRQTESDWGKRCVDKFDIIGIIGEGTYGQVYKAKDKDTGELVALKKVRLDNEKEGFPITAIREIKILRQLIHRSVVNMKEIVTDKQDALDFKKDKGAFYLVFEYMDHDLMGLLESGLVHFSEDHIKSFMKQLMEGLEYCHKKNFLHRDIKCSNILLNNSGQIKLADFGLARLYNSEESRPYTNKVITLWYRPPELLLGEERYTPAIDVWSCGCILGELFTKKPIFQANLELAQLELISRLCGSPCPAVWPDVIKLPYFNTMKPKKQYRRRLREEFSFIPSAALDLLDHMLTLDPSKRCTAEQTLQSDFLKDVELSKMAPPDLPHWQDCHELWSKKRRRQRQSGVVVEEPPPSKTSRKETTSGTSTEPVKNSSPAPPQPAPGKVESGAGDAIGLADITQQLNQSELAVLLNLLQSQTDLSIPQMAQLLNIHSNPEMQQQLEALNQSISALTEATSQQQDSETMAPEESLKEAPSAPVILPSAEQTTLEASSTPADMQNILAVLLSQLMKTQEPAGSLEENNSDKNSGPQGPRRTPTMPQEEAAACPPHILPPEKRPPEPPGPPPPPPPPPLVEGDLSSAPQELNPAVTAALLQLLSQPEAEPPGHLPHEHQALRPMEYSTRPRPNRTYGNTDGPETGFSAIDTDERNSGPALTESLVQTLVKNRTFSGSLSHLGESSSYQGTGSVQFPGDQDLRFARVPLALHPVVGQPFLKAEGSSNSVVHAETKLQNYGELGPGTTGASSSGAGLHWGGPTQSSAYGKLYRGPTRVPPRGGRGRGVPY
Chain of CDK12/CycK (O75909 whole entry partner): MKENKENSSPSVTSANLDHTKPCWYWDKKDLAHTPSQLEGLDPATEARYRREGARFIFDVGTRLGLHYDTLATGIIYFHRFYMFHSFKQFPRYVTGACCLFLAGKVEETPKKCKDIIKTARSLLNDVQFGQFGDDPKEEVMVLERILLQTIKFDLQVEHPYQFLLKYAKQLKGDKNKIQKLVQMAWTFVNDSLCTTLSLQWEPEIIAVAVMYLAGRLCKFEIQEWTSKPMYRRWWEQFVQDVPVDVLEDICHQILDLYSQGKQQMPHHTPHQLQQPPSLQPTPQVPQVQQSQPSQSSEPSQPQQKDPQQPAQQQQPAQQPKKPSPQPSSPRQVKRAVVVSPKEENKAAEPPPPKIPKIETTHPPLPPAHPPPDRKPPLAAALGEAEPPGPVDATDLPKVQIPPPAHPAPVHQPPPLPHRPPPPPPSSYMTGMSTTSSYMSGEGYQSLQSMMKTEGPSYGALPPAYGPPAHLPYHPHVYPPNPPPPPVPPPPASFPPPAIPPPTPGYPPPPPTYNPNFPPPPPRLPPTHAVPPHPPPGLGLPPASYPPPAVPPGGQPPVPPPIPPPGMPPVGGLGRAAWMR
Format: biochemical
Protocol: Assay buffer comprised 50 mM HEPES pH 7.5, 1 mM DTT, 20 mM MgCl2, 3 mM MnCl2, 3 μM Na3VO4 and 50 μg/ml PEG8000. Kinase reactions were carried out in 384-well Optiplates™ (PerkinElmer 6007299). Test compounds were dissolved & diluted in dimethyl sulfoxide (DMSO) and cross diluted into assay buffer with a final DMSO concentration of 1% (v/v) in the assay. Test compounds (or 1% DMSO in control and blank wells) were pre-incubated with 60 nM CDK12/CycK for 30 minutes. After this time 1 μM Adenosine-5′-triphosphate (ATP) and 0.5 μM RBER-IRStide substrate (ProQinase 0863-0000-1) were added to commence the kinase reaction. Incubations were carried out for 1 h at 25° C. with kinase activity determined using the ADP-Glo™ reagent from Promega according to the manufacturer's instructions. Light generated is proportional to kinase activity and measured using a luminometer (EnVision, PerkinElmer). The signal obtained in the blank wells (containing no kinase) was subtracted from all other wells and IC50 values were determined by fitting a sigmoidal curve to % inhibition of control versus Log10 compound concentration.
`C=CC(=O)N1CCC[C@@H]1C(=O)NCCc1cc2c(-c3ccnn3C)ccnc2[nH]1` [Example 52, (R)-1-Acryloyl-N-(2-(4-(1-methyl-1H-pyrazol-5-yl)-1H-pyrrolo[2,3-b]pyridin-2-yl)ethyl)pyrrolidine-2-carboxamide] was tested, and the IC50 was 1000 to 30000 nM.
In the case of `C=CC(=O)N1CCC[C@H]1C(=O)NCCc1cc2c(-c3cnn4ncccc34)c(Cl)cnc2[nH]1` [Example 53, (S)-1-Acryloyl-N-(2-(5-chloro-4-(pyrazolo[1,5-b]pyridazin-3-yl)-1H-pyrrolo[2,3-b]pyridin-2-yl)ethyl)pyrrolidine-2-carboxamide], the IC50 is reported as < 100 nM.
With `C=CC(=O)Nc1cccc(C(=O)NCCc2cc3c(-c4cnn5ncccc45)c(Cl)cnc3[nH]2)c1` [Example 56, 3-Acrylamido-N-(2-(5-chloro-4-(pyrazolo[1,5-b]pyridazin-3-yl)-1H-pyrrolo[2,3-b]pyridin-2-yl)ethyl)benzamide] the IC50 was < 100 nM.
For `C=CC(=O)N[C@H]1COC[C@@H]1C(=O)NCc1cc2c(-c3cnn4ncccc34)ccnc2[nH]1` [Example 58, (3R,4R)-4-Acrylamido-N-((4-(pyrazolo[1,5-b]pyridazin-3-yl)-1H-pyrrolo[2,3-b]pyridin-2-yl)methyl)tetrahydrofuran-3-carboxamide], the IC50 was 1000 to 30000 nM.
`C=CC(=O)N[C@@H]1CC[C@@H](C(=O)NCc2cc3c(-c4cnn5ncccc45)ccnc3[nH]2)C1` [Example 59, (1R,3R)-3-Acrylamido-N-((4-(pyrazolo[1,5-b]pyridazin-3-yl)-1H-pyrrolo[2,3-b]pyridin-2-yl)methyl)cyclopentane-1-carboxamide] showed an IC50 of 1000 to 30000 nM.
`C=CC(=O)N1CCOC(C(=O)NCCc2cc3c(-c4cnn5ncccc45)ccnc3[nH]2)C1` (centres unmarked) [Example 60, 4-Acryloyl-N-(2-(4-(pyrazolo[1,5-b]pyridazin-3-yl)-1H-pyrrolo[2,3-b]pyridin-2-yl)ethyl)morpholine-2-carboxamide] was tested, and the IC50 was < 100 nM.
In the case of `C=CC(=O)N[C@@H]1CC[C@@H](C(=O)NCCc2cc3c(-c4cnn5ncccc45)ccnc3[nH]2)C1` [Example 64, (1R,3R)-3-Acrylamido-N-(2-(4-(pyrazolo[1,5-b]pyridazin-3-yl)-1H-pyrrolo[2,3-b]pyridin-2-yl)ethyl)cyclopentane-1-carboxamide], the IC50 is reported as 100 to 1000 nM.
In the case of `C=CC(=O)Nc1cncc(C(=O)N2CCC(c3cc4c(-c5cnn6ncccc56)ccnc4[nH]3)C2)c1` (centres unmarked) [Example 65, N-(5-(3-(4-(Pyrazolo[1,5-b]pyridazin-3-yl)-1H-pyrrolo[2,3-b]pyridin-2-yl)pyrrolidine-1-carbonyl)pyridin-3-yl)acrylamide], the IC50 is reported as < 100 nM.
With `CN(C)C/C=C/C(=O)N1CCC(C(=O)N2CCC(c3cc4c(-c5cnn6ncccc56)ccnc4[nH]3)CC2)CC1` [Example 66, (E)-4-(Dimethylamino)-1-(4-(4-(4-(pyrazolo[1,5-b]pyridazin-3-yl)-1H-pyrrolo[2,3-b]pyridin-2-yl)piperidine-1-carbonyl)piperidin-1-yl)but-2-en-1-one] the IC50 was < 100 nM.
In the case of `CN(C)C/C=C/C(=O)N1CC[C@@H](C(=O)N2CCC(c3cc4c(-c5cnn6ncccc56)ccnc4[nH]3)CC2)C1` [Example 67, (R,E)-4-(Dimethylamino)-1-(3-(4-(4-(pyrazolo[1,5-b]pyridazin-3-yl)-1H-pyrrolo[2,3-b]pyridin-2-yl)piperidine-1-carbonyl)pyrrolidin-1-yl)but-2-en-1-one], the IC50 is reported as < 100 nM.
In the case of `CN(C)C/C=C/C(=O)Nc1cncc(C(=O)N2CC[C@H](c3cc4c(-c5cnn6ncccc56)ccnc4[nH]3)C2)c1` [Example 68, (S,E)-4-(Dimethylamino)-N-(5-(3-(4-(pyrazolo[1,5-b]pyridazin-3-yl)-1H-pyrrolo[2,3-b]pyridin-2-yl)pyrrolidine-1-carbonyl)pyridin-3-yl)but-2-enamide], the IC50 is reported as < 100 nM.
For `C=CC(=O)N1CCCC(C(=O)NCCc2cc3c(-c4cnn5ncccc45)ccnc3[nH]2)C1` (centres unmarked) [Example 75, 1-Acryloyl-N-(2-(4-(pyrazolo[1,5-b]pyridazin-3-yl)-1H-pyrrolo[2,3-b]pyridin-2-yl)ethyl)piperidine-3-carboxamide], the IC50 was < 100 nM.
For `C=CC(=O)N1CCC(C(=O)NCCc2cc3c(-c4cnn5ncccc45)ccnc3[nH]2)CC1` [Example 77, 1-Acryloyl-N-(2-(4-(pyrazolo[1,5-b]pyridazin-3-yl)-1H-pyrrolo[2,3-b]pyridin-2-yl)ethyl)piperidine-4-carboxamide], the IC50 was 100 to 1000 nM.
For `O=C(NCCc1cc2c(-c3cnn4ncccc34)ccnc2[nH]1)[C@@H]1CCCN1C(=O)CO` [Example 78, (S)-1-(2-Hydroxyacetyl)-N-(2-(4-(pyrazolo[1,5-b]pyridazin-3-yl)-1H-pyrrolo[2,3-b]pyridin-2-yl)ethyl)pyrrolidine-2-carboxamide], the IC50 was 100 to 1000 nM.
Compound `O=C(NCCc1cc2c(-c3cnn4ncccc34)ccnc2[nH]1)[C@H]1CCCN1C(=O)CO` [Example 79, (R)-1-(2-Hydroxyacetyl)-N-(2-(4-(pyrazolo[1,5-b]pyridazin-3-yl)-1H-pyrrolo[2,3-b]pyridin-2-yl)ethyl)pyrrolidine-2-carboxamide] has an IC50 of 100 to 1000 nM.
Compound `C=CC(=O)N1CCC(C(=O)NCc2cc3c(-c4cnn5ncccc45)ccnc3[nH]2)CC1` [Example 80, 1-Acryloyl-N-((4-(pyrazolo[1,5-b]pyridazin-3-yl)-1H-pyrrolo[2,3-b]pyridin-2-yl)methyl)piperidine-4-carboxamide] has an IC50 of 1000 to 30000 nM.
In the case of `CCOCCC(=O)Nc1ccc(C(=O)NCCc2cc3c(-c4cnn5ncccc45)ccnc3[nH]2)cc1` [Example 81, 4-(3-Ethoxypropanamido)-N-(2-(4-(pyrazolo[1,5-b]pyridazin-3-yl)-1H-pyrrolo[2,3-b]pyridin-2-yl)ethyl)benzamide], the IC50 is reported as < 100 nM.
Compound `O=C(NCCc1cc2c(-c3cnn4ncccc34)ccnc2[nH]1)[C@@H]1CCCN1` [Example 82, (S)—N-(2-(4-(pyrazolo[1,5-b]pyridazin-3-yl)-1H-pyrrolo[2,3-b]pyridin-2-yl)ethyl)pyrrolidine-2-carboxamide] has an IC50 of 100 to 1000 nM.
Compound `O=C(NCCc1cc2c(-c3cnn4ncccc34)ccnc2[nH]1)[C@@H]1CCCN1C(=O)/C=C/CN1CCCC1` [Example 85, (S,E)-N-(2-(4-(pyrazolo[1,5-b]pyridazin-3-yl)-1H-pyrrolo[2,3-b]pyridin-2-yl)ethyl)-1-(4-(pyrrolidin-1-yl)but-2-enoyl)pyrrolidine-2-carboxamide] has an IC50 of 1000 to 30000 nM.
`O=C(NCCc1cc2c(-c3cnn4ncccc34)ccnc2[nH]1)[C@@H]1CCCN1C(=O)/C=C/CN1CCOCC1` [Example 86, (S,E)-1-(4-Morpholinobut-2-enoyl)-N-(2-(4-(pyrazolo[1,5-b]pyridazin-3-yl)-1H-pyrrolo[2,3-b]pyridin-2-yl)ethyl)pyrrolidine-2-carboxamide] gave an IC50 of 1000 to 30000 nM.
Work on `CN(C)C/C=C/C(=O)N1CCCC[C@H]1C(=O)NCCc1cc2c(-c3cnn4ncccc34)ccnc2[nH]1` [Example 87, (S,E)-1-(4-(Dimethylamino)but-2-enoyl)-N-(2-(4-(pyrazolo[1,5-b]pyridazin-3-yl)-1H-pyrrolo[2,3-b]pyridin-2-yl)ethyl)piperidine-2-carboxamide] yielded an IC50 of 1000 to 30000 nM.
With `CN(C)C/C=C/C(=O)N1CCCC[C@@H]1C(=O)NCCc1cc2c(-c3cnn4ncccc34)ccnc2[nH]1` [Example 88, (R,E)-1-(4-(Dimethylamino)but-2-enoyl)-N-(2-(4-(pyrazolo[1,5-b]pyridazin-3-yl)-1H-pyrrolo[2,3-b]pyridin-2-yl)ethyl)piperidine-2-carboxamide Formate Salt] the IC50 was 100 to 1000 nM.
`O=C(NCCc1cc2c(-c3cnn4ncccc34)ccnc2[nH]1)[C@@H]1CCCN1S(=O)(=O)c1ccccc1` [Example 89, (S)-1-(phenylsulfonyl)-N-(2-(4-(pyrazolo[1,5-b]pyridazin-3-yl)-1H-pyrrolo[2,3-b]pyridin-2-yl)ethyl)pyrrolidine-2-carboxamide] gave an IC50 of 100 to 1000 nM.
`C=CC(=O)N1CCCC[C@@H]1C(=O)NCCc1cc2c(-c3cnn4ncccc34)ccnc2[nH]1` [Example 93, (R)-1-Acryloyl-N-(2-(4-(pyrazolo[1,5-b]pyridazin-3-yl)-1H-pyrrolo[2,3-b]pyridin-2-yl)ethyl)piperidine-2-carboxamide] was tested, and the IC50 was < 100 nM.
`C=CC(=O)N1CCC[C@H]1C(=O)NCCc1cc2c(-c3ccncc3)ccnc2[nH]1` [Example 95, (S)-1-Acryloyl-N-(2-(4-(pyridin-4-yl)-1H-pyrrolo[2,3-b]pyridin-2-yl)ethyl)pyrrolidine-2-carboxamide] gave an IC50 of 1000 to 30000 nM.
With `NCCc1cc2c(-c3cnn4ncccc34)c(Cl)cnc2[nH]1` [Example 101, 2-(5-chloro-4-(pyrazolo[1,5-b]pyridazin-3-yl)-1H-pyrrolo[2,3-b]pyridin-2-yl)ethan-1-amine] the IC50 was 100 to 1000 nM.
`NCCc1cc2c(-c3cccnc3)ccnc2[nH]1` [Example 104, 2-(4-(Pyridin-3-yl)-1H-pyrrolo[2,3-b]pyridin-2-yl)ethan-1-amine] gave an IC50 of 1000 to 30000 nM.
`C=CC(=O)N1CCC[C@H]1C(=O)NCCc1cc2c(-c3cccnc3)ccnc2[nH]1` [Example 105, (S)-1-Acryloyl-N-(2-(4-(pyridin-3-yl)-1H-pyrrolo[2,3-b]pyridin-2-yl)ethyl)pyrrolidine-2-carboxamide] was tested, and the IC50 was 1000 to 30000 nM.
Work on `O=C(NCCc1cc2c(-c3ccncc3)ccnc2[nH]1)[C@@H]1CCCN1` [Example 107, (S)—N-(2-(4-(Pyridin-4-yl)-1H-pyrrolo[2,3-b]pyridin-2-yl)ethyl)pyrrolidine-2-carboxamide] yielded an IC50 of 1000 to 30000 nM.
